Measured values: the NIST ThermoML archive (doi:10.1021/je5002945)
Numbers after ± are expanded uncertainties.

Details: 101.33 kPa, Liquid, Vibrating tube method

mass density (293.15 K) [kg/m3]	mass density (298.15 K) [kg/m3]	mass density (303.15 K) [kg/m3]	mass density (308.15 K) [kg/m3]	mass density (313.15 K) [kg/m3]	mass density (318.15 K) [kg/m3]	mass density (323.15 K) [kg/m3]	SMILES
948.72 ± 0.07	943.86 ± 0.07	939 ± 0.07	934.08 ± 0.07	929.13 ± 0.08	924.06 ± 0.08	918.96 ± 0.08	CN(C)C=O [dimethylformamide]
879.05 ± 0.23	875.12 ± 0.23	871.17 ± 0.23	867.15 ± 0.23	863.11 ± 0.23	859.01 ± 0.23	854.82 ± 0.23	CCCCN(C=O)CCCC [N,N-dibutylformamide]
951.59 ± 0.23	947.48 ± 0.23	943.29 ± 0.23	939.04 ± 0.23	934.78 ± 0.23	930.45 ± 0.23	926.06 ± 0.23	CCNC=O [N-ethylformamide]
940.92 ± 0.23	936.3 ± 0.23	931.62 ± 0.23	926.89 ± 0.23	922.09 ± 0.23	917.23 ± 0.23	912.23 ± 0.23	CC(=O)N(C)C [N,N-dimethylethanamide]
1003.35 ± 0.23	998.91 ± 0.23	994.49 ± 0.23	990.01 ± 0.23	985.47 ± 0.23	980.88 ± 0.23	976.24 ± 0.23	CNC=O [N-methylformamide]
